By inhibition is commonly meant the percentage by which the read-out fell short of the control.

Data set [1] addresses T1, GR (Homo sapiens, UniProt P04150).
T1 sequence (P04150 1-777): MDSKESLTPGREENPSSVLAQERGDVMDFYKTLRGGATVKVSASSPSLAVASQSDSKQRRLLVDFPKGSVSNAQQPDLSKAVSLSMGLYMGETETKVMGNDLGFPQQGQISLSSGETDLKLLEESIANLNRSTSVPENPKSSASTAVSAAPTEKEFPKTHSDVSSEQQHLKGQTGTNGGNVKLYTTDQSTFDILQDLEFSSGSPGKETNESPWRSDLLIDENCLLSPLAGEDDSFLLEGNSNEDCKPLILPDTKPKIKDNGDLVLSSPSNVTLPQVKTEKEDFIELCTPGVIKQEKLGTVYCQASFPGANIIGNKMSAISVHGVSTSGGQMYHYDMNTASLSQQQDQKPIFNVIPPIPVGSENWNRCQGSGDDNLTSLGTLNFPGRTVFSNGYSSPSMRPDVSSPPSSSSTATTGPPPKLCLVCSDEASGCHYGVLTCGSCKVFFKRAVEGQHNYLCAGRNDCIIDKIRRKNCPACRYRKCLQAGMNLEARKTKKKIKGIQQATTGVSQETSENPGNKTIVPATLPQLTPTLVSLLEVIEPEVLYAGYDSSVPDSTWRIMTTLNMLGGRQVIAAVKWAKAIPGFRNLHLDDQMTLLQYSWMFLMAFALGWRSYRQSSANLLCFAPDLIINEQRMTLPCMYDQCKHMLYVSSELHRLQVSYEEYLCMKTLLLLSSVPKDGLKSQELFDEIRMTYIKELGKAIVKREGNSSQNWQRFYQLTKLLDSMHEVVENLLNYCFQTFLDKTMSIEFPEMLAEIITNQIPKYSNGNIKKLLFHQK
Briefly: GRE-Luc reporter gene transactivation in MCF-7 cells. The format is cell-based. Further details: endogenous in cells; host or cells: MCF-7. Particulars: MCF7, DEX 100 nM, test compound 100 nM, read-out: inhibition of DEX-induced luciferase transactivation (GRE-Luc).

Data set [2] has as its target T1, GR. Briefly: GRE-Luc reporter gene transactivation in HBE cells. The format is cell-based. Particulars: DEX 100 nM, test compound 100 nM, read-out: inhibition of DEX induced luciferase transactivation (GRE-Luc). Background: A reporter such as luciferase makes a cellular process visible.
The nature of data set [3]: Hormone concentrations in serum of pellet-treated athymic mice. The format is in vivo. Particulars: female, NMRI nu/nu athymic, mouse, other: steroid pellets grafted onto the neck, E2 0.3 mg pellet, day 28, read-out: concentration in mice serum (mean±SEM). The protocol:
(§1) Four weeks old ovariectomized female NMRInu/nu 20 athymic mice were purchased from Janvier laboratory (Le Genest Saint Isle, France). Breast tissues samples were obtained from 6 women (aged 29-42 years). Human mammary gland tissue was cut into 2×2×2 mm fragments and 4 fragments were then subcutaneously xenografted onto the back of 4 mice per group. Four treatment groups were performed: control, E2, E2+P and E2+P+UPA. Treatments were administered by grafting steroid pellets onto the neck of each mouse. The experimental conditions were initially determined by using a dose range of hormones mixed with cholesterol into the pellets. Blood sample assays were performed after 2 weeks and 4 weeks of treatment to measure plasmatic hormonal concentrations. Finally, the dose of 0.3 mg for E2 and 20 mg for P and UPA were used, as it provides the expected blood concentrations. For the control groups, pellets containing only cholesterol were used. To reproduce menstrual cycle conditions, mice were grafted on the first day of experiment with cholesterol, E2 and/or UPA containing pellets and on the fourteen day with cholesterol or progesterone containing pellets in control and E2 groups, or in E+P and E2+P+UPA groups, respectively. Twenty eight days after the start of experiment, mice were sacrificed. Blood was collected for each mouse, and serum was frozen at −20° C. until hormone concentrations
Estradiol was measured by radioimmunoassay using Clinical Assays Estradiol-2 (Sorin Biomedica Diagnostics SpA, Saluggia, Italia). Progesterone levels were evaluated by UPLC-MSMS using Acquity UPLC and Quattro Premier XE (Waters, Milford Mass., USA).
UPA concentrations were measured using LC-MS/MS technique by MPI Research (State College, Pa., USA).

Data set [4] concerns normal human breast tissues xenografts. Briefly: Ki67 mitotic index in normal human breast tissue xenografted in athymic mice. The format is in vivo. Conditions: 28 days.
Text: Breast tissues samples were obtained from 6 women (aged 29-42 years) undergoing surgery for reduction mammoplasty, with their informed consent according to the French law on clinical experimentation.
as §1
Mitotic index was calculated using the Ki67 antibody, and was determined for each breast tissue grafted into mice. Immunohistochemical analyses were performed using the BOND-MAX workstation (Leica, Nanterre, France). Paraffin sections of breast tissue xenografts were de-waxed and rehydrated before antigen retrieval using citrate retrieval solution (pH 6.0) for Ki67 antibody or EDTA retrieval solution (pH 9.0) for PR and ERalpha antibodies, for 30 min. […]

A further data set deals with hPR-A and hPR-B. Description: MMTV-Luc reporter gene transactivation in HBE cells transfected with hPR-A and/or hPR-B. The format is cell-based, human.
In the next data set the target is T2, PR (Homo sapiens, UniProt P06401).
T2 sequence (P06401 1-933): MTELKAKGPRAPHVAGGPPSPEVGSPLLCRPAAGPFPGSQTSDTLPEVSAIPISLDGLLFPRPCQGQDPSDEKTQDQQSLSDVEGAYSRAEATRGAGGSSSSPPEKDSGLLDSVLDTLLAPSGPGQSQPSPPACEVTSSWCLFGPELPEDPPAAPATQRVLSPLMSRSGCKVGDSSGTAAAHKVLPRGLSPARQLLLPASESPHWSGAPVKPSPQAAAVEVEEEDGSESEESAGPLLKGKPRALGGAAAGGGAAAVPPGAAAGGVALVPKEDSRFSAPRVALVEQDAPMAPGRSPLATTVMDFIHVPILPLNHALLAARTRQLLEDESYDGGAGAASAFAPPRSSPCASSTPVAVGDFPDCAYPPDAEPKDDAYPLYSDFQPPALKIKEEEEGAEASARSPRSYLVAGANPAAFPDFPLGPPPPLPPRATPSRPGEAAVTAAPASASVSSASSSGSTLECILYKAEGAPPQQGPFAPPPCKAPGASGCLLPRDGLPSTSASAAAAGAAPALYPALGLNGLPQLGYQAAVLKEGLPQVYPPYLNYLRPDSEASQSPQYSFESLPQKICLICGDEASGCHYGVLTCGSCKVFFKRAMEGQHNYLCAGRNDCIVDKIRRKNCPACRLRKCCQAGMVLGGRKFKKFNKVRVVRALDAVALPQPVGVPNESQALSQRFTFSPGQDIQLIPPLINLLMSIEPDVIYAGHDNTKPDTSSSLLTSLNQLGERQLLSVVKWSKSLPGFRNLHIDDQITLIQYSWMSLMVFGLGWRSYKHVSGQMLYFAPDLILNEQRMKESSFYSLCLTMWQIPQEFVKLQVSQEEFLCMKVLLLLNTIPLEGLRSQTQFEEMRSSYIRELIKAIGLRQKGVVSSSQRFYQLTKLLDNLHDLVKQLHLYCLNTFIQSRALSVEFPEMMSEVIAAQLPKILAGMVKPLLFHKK
Description: MMTV-Luc reporter gene transactivation in T-47D cells. The format is cell-based. Details: constitutively expressed high amounts of PR (progesterone receptor); endogenous in cells; host or cells: T-47D.

Data set [5] deals with metastatic breast cancers. Particulars: cited from earlier work; for disease stabilization / objective response rate: 123 postmenopausal women, second or third line, mifepristone or onapristone pooled.
For another data set, the system named is HBCx-34 tumors. Particulars: model characterisation; cited from earlier work.

Description for hPR-A and hPR-B: T-47D and MCF-7 cell lines were respectively maintained in RPMI 1640 and in DMEM medium supplemented with 10% fetal calf serum (PAA Laboratory, Les Mureaux, France). […] Normal human breast epithelial cell (HBE) primary cultures were obtained from 20 women (aged 17-50 years). […] HBE cells were maintained in HAM F10 medium (PAA Laboratory, Les Mureaux, France) containing hydrocortisone (5 ng/ml), Triiodo-L-thyronine (6.5 ng/ml), choleratoxin (10 ng/ml), transferrin (5 mg/ml), insulin (0.016 U/ml), epidermal growth factor (10 ng/ml) (Sigma, St Quentin Fallavier, France) and 5% human serum (Etablissement Français du Sang).
After seeding, cells were cultured for 24 h in serum and phenol red free medium. Then treatments were carried out in a phenol red free medium containing 5% dextran-charcoal stripped serum. […] Control cells were treated with ethanol, at 10 1:1000 final ethanol concentration alone as vehicle or E2 (10 nM).
Cells were transfected with reporter gene plasmids containing glucocorticoid and progesterone responsive elements (GRE/PRE): 1) the MMTV-Luc is a Mouse Mammary Tumor Virus Long Terminal Repeat promoter containing one GRE/PRE palindrome and three GRE/PRE hemi-palindromes upstream to firefly luciferase gene in pFC31 vector, 2) the GRELuc contains six copies of GRE/PRE palindrome upstream to firefly luciferase gene in pBL vector. When indicated, HBE cells were transfected with human PR isoforms hPR-A and hPR-B expression plasmids constructed in POP3 vectors. Rous Sarcoma Virus promoter upstream to beta galactosidase gene (pRSV-β-Gal) was transfected in each experiment as control. Transfections were performed according to the manufacturer instructions using Lipofectamine or Lipofectamine LTX Reagents (Invitrogen, Cergy-Pontoise, France) for breast cancer cell lines or HBE cells, respectively. After 24 h of transfection, breast cancer and HBE cells were treated with hormones for 24 h or 48 h, respectively. At the end of the experiment, cells were lysed and luciferase activity was determined using the Luciferase Assay System (Promega, Charbonnières-les-bains, France). Beta galactosidase activity was assessed using the Galacto Star kit (Applied Biosystems, Courtaboeuf, France) to normalize luciferase activity data.

As for `CNc1ccc([C@H]2C[C@@]3(C)[C@@H](CC[C@]3(OC(C)=O)C(C)=O)[C@@H]3CCC4=CC(=O)CCC4=C32)cc1` [CDB-3877], the inhibition at 0.1 µM on GR [1] stood at 26.5 ± 9.1%; on GR [2], 18.1 ± 11.8%.

On to `C[C@]12CC[C@@H]3c4ccc(O)cc4CC[C@H]3[C@@H]1CC[C@@H]2O` [E2, 17β estradiol], for which the concentration at 28 days in data set [3] amounted to 0.0369 ± 0.00425 ng/mL. Besides, in data set [4] (E2 treated group vs control group), the “proliferative activity (Ki67) in lobules” value is listed as “slightly but not significantly increased”. Further, the “mitotic index (Ki67) in ducts” value in data set [4] (E2 treated group, p<0.05) is recorded as 3.1±0.7 fold induction compared to the control group.

As for `CC#C[C@]1(O)CC[C@H]2[C@@H]3CCC4=CC(=O)CCC4=C3[C@@H](c3ccc(N(C)C)cc3)C[C@@]21C` [RU-486, mifepristone], the “inhibition of P induced MMTV-Luc transactivation” value in the data set with hPR-A and hPR-B (HBE cells co-transfected with hPR-A and hPR-B, P 100 nM, antagonist 1 to 1000 nM) is “inhibited P induced MMTV11 Luc transactivation in a dose dependent manner from 1 000 to 10 nM”. The “progestational agonist properties on reporter gene transcription” value in the data set with hPR-A and hPR-B (HBE cells, compound alone) is “did not exhibit progestational agonist properties”. Moreover, the “PR antagonist response on MMTV-Luc transactivation at 1 nM” value on PR (P 100 nM, antagonist 1 nM) was “Partial antagonist responses”. Also, at PR (P 100 nM, antagonist 1000 to 10 nM), the “PR antagonist action on MMTV-Luc transactivation” value was “potent PR antagonist actions from 1000 to 10 nM”. Besides, the “progestational agonist properties on reporter gene transcription” value at PR (compound alone) is given as “did not exhibit progestational agonist properties”. In data set [5], the disease stabilization was 43%, the objective response rate was 11% and the “side effects that stopped clinical studies” value is “anti-glucocorticoid”.

Regarding `CCCCCOC(=O)Nc1nc(=O)n([C@@H]2O[C@H](C)[C@@H](O)[C@H]2O)cc1F` [capecitabine], the “responsiveness of the HBCx-34 tumor” value in the data set with HBCx-34 tumors is on record as “responsive”.

As for `CC(=O)O[C@@]12CO[C@@H]1C[C@H](O)[C@@]1(C)C(=O)[C@H](O)C3=C(C)[C@@H](OC(=O)[C@H](O)[C@@H](NC(=O)OC(C)(C)C)c4ccccc4)C[C@@](O)([C@@H](OC(=O)c4ccccc4)[C@H]21)C3(C)C` [docetaxel], the “responsiveness of the HBCx-34 tumor” value in the data set with HBCx-34 tumors is reported as “responsive”.

In the case of `CN(C)c1ccc([C@H]2C[C@]3(C)[C@@H](CC[C@]3(O)CCCO)[C@@H]3CCC4=CC(=O)CCC4=C32)cc1` [onapristone], in data set [5], the disease stabilization was 43%, the objective response rate is 11% and the “side effects that stopped clinical studies” value was “liver toxic”.

(Values after patent publication US9814732B2, “Ulipristal acetate for prevention and treatment of breast tumors” (LABORATOIRE HRA-PHARMA, priority 2012, dated 2017).)
